In ChEMBL document CHEMBL6074684, “Structure-activity relationship study of novel evodiamine amino acid conjugates with potent anti-colorectal cancer efficacy” (Eur J Med Chem, 2025):
Active and inactive are the calls of the source. No cut-off for these calls is given here.

Key:
[1] = test system: LoVo; assay: Antiproliferative activity against human LoVo cells assessed as reduction in cell viability measured after 24 hrs; assay type: functional, cell-based; settings: dose 40-200 nmol/L
[2] = test system: RKO; assay: Cell cycle arrest in human RKO cells assessed as accumulation of cells at S phase at 10 nM incubated for 24 hrs by […]PI staining based flow cytometric analysis (reference value: 43.36 %); assay type: functional
[3] = test system: HCT-116; assay: Antiproliferative activity against human […] cells assessed as inhibition of cell growth incubated for 72 hrs by MTT assay; assay type: functional, cell-based; settings: HCT-116, 72 h
[4] = test system: RKO; assay: Cell cycle arrest in human RKO cells assessed as accumulation of cells at G1 phase at 30 nM incubated for 24 hrs by […]PI staining based flow cytometric analysis (reference value: 35.29 %); assay type: functional
[5] = Potency index, ratio of topotecan IC50 to test compound IC50 for antiproliferative activity against human RKO cells assessed as inhibition of cell growth incubated for 72 hrs by MTT assay; assay type: functional
[6] = test system: LoVo; assay: Cell cycle arrest in human LoVo cells assessed as accumulation of cells at S phase cells at 30 nM incubated for 24 hrs by […]PI staining based flow cytometric analysis (reference value: 54.99 %); assay type: functional
[7] = test system: RKO; assay: Cell cycle arrest in human RKO cells assessed as accumulation of cells at S phase at 30 nM incubated for 24 hrs by […]PI staining based flow cytometric analysis (reference value: 43.36 %); assay type: functional
[8] = Stability of compound at pH 5.5 assessed as residual rate measured after 2 days; assay type: physicochemical; settings: buffer, time 2 day, read-out: Stability
[9] = test system: RKO; assay: Cell cycle arrest in human RKO cells assessed as accumulation of cells at S phase at 90 nM incubated for 24 hrs by […]PI staining based flow cytometric analysis (reference value: 43.36 %); assay type: functional
[10] = test system: HT-29; assay: Antiproliferative activity against human HT-29 cells assessed as inhibition of cell growth incubated for 72 hrs by MTT assay; assay type: functional, cell-based; settings: HT-29, 72 h
[11] = test system: LoVo; assay: Cell cycle arrest in human LoVo cells assessed as accumulation of cells at G2 phase cells at 10 nM incubated for 24 hrs by […]PI staining based flow cytometric analysis (reference value: 14.84 %); assay type: functional
[12] = test system: Mitochondrial membrane; assay: Induction of mitochondrial membrane potential loss in human LoVo cells assessed as TMRE positive cells at 90 nM incubated for 24 hrs by TMRE staining based flow cytometric analysis (reference value: 95.93 %); assay type: cell membranes
[13] = Cmax in male Sprague-Dawley rat at 50 mg/kg, ip measured after 24 hrs by LC-MS/MS analysis; assay type: ADME, organism-based; settings: in vivo
[14] = test system: LoVo; assay: Induction of apoptosis in human LoVo cells assessed as apoptosis rate at 90 nM incubated for 24 hrs by Annexin V/PI staining based flow cytometric analysis (reference value: 4.71 %); assay type: functional
[15] = test system: MCF7; assay: Antiproliferative activity against human MCF7 cells assessed as inhibition of cell growth incubated for 72 hrs by MTT assay; assay type: functional, cell-based; settings: MCF7, 72 h
[16] = Tmax in male Sprague-Dawley rat at 50 mg/kg, ip measured after 24 hrs by LC-MS/MS analysis; assay type: ADME, organism-based; settings: in vivo
[17] = test system: LoVo; assay: Cell cycle arrest in human LoVo cells assessed as accumulation of cells at S phase cells at 10 nM incubated for 24 hrs by […]PI staining based flow cytometric analysis (reference value: 54.99 %); assay type: functional
[18] = Potency index, ratio of topotecan IC50 to test compound IC50 for antiproliferative activity against human LoVo cells assessed as inhibition of cell growth incubated for 72 hrs by MTT assay; assay type: functional
[19] = test system: LoVo; assay: Induction of morphological changes in human LoVo cells assessed as appearance of contracted nucleus incubated for 24 hrs by Giemsa staining based microscopic analysis; assay type: functional, cell-based; settings: dose 10-90 nM
[20] = test system: Mitochondrial membrane; assay: Induction of mitochondrial membrane potential loss in human LoVo cells assessed as decrease in TMRE positive cells at 10 to 90 nM incubated for 24 hrs by TMRE staining based flow cytometric analysis; assay type: cell membranes; settings: dose 10-90 nM
[21] = test system: LoVo; assay: Cell cycle arrest in human LoVo cells assessed as accumulation of cells at G1 phase cells at 10 nM incubated for 24 hrs by […]PI staining based flow cytometric analysis (reference value: 29.69 %); assay type: functional
[22] = test system: LoVo; assay: Cell cycle arrest in human LoVo cells assessed as accumulation of cells at G2 phase cells at 30 nM incubated for 24 hrs by […]PI staining based flow cytometric analysis (reference value: 14.84 %); assay type: functional
[23] = test system: RKO; assay: Induction of morphological changes in human RKO cells assessed as appearance of contracted nucleus incubated for 24 hrs by Giemsa staining based microscopic analysis; assay type: functional, cell-based; settings: dose 10-90 nM
[24] = test system: RKO; assay: Cell cycle arrest in human RKO cells assessed as accumulation of cells at G2 phase at 90 nM incubated for 24 hrs by […]PI staining based flow cytometric analysis (reference value: 20.07 %); assay type: functional
[25] = AUC (0 to t) in male Sprague-Dawley rat at 50 mg/kg, ip measured after 24 hrs by LC-MS/MS analysis; assay type: ADME, organism-based; settings: in vivo
[26] = test system: LoVo; assay: Antitumor activity against human LoVo cells xenografted in male BALB/c nude mouse assessed as tumor growth inhibition at 40 mg/kg, ip administered once daily for 14 days relative to control; assay type: functional; settings: 336 h, time 14 day, read-out: TGI
[27] = test system: HT-29; assay: Antitumor activity against human HT-29 cells xenografted in male BALB/c nude mouse assessed as tumor growth inhibition at 40 mg/kg, ip administered once daily for 14 days relative to control; assay type: functional; settings: HT-29, 336 h, time 14 day, read-out: TGI
[28] = Stability of compound at pH 4.6 assessed as residual rate measured after 2 days; assay type: physicochemical; settings: buffer, time 2 day, read-out: Stability
[29] = test system: SGC-7901; assay: Antiproliferative activity against human SGC-7901 cells assessed as inhibition of cell growth incubated for 72 hrs by MTT assay; assay type: functional, cell-based; settings: SGC-7901, 72 h
[30] = test system: Mitochondrial membrane; assay: Induction of mitochondrial membrane potential loss in human RKO cells assessed as decrease in TMRE positive cells at 10 to 90 nM incubated for 24 hrs by TMRE staining based flow cytometric analysis; assay type: cell membranes; settings: dose 10-90 nM
[31] = test system: RKO; assay: Cell cycle arrest in human RKO cells assessed as accumulation of cells at G1 phase at 90 nM incubated for 24 hrs by […]PI staining based flow cytometric analysis (reference value: 35.29 %); assay type: functional
[32] = test system: Huh-7; assay: Antiproliferative activity against human Huh-7 cells assessed as inhibition of cell growth incubated for 72 hrs by MTT assay; assay type: functional, cell-based; settings: Huh-7, 72 h

Compound: CC(C)(C)OC(=O)N[C@@H](CCC(N)=O)C(=O)Oc1ccc2[nH]c3c(c2c1)CCN1C(=O)c2cc(F)ccc2N(c2cccc(F)c2)[C@H]31
- Activity [1]: Dose-dependent-effect
- Activity [2]: 42.5%
- IC50 [3]: 260 nM
- Activity [4]: 16.95%
- Ratio IC50 [5]: 3.4
- Activity [6]: 26.97%
- Activity [7]: 25.51%
- remaining at 48 h [8]: 60.1%
- Activity [9]: 49.95%
- IC50 [10]: 130 nM
- Activity [11]: 27.11%
- Activity [12]: 86.7%
- Cmax [13]: 7080 ng/mL
- Activity [14]: 36.4%
- IC50 [15]: 600 nM
- Tmax [16]: 1 h
- Activity [17]: 45.15%
- Ratio IC50 [18]: 3.4
- Activity [19]: Dose-dependent-effect
- Activity [20]: Active
- Activity [21]: 26.62%
- Activity [22]: 61.56%
- Activity [23]: Dose-dependent-effect
- Activity [24]: 21.72%
- AUC(0-t) at 24 h [25]: 14600 ng·h/mL
- inhibition in vivo at 40 mg/kg [26]: 82.5%
- inhibition in vivo at 40 mg/kg [27]: 70.1%
- remaining at 48 h [28]: 67.8%
- IC50 [29]: 490 nM
- Activity [30]: Active
- Activity [31]: 26.83%
- IC50 [32]: 370 nM
